Measured values from patent US20230286946A1, “DIFLUOROMETHYL-PYRIDIN-2-YL TRIAZOLES” (Boehringer Ingelheim International GmbH, priority 2020, published 2023).

Tests used:
[1] = Metabolic stability in human liver microsomes (Human MST); assay type: in vitro ADME; settings: pH 7.6, pooled human liver microsomes, 37° C., read-out: Human MST t½
Procedure: Assessment of Metabolic Stability in Human Liver Microsomes (Human MST) The metabolic stability of the compounds according to the invention may be investigated as follows: The metabolic degradation of the test compound is assayed at 37° C. with pooled human liver microsomes. The final incubation volume of 100 μL per time point contains TRIS buffer pH 7.6 at room temperature (0.1 M), MgCl2 (5 mM), microsomal protein (1 mg/mL) and the test compound at a final concentration of 1 μM. Following a short pre-incubation period at 37° C., the reactions are initiated by addition of beta-nicotinamide adenine dinucleotide phosphate, reduced form (NADPH, 1 mM), and terminated by transferring an aliquot into solvent after different time points. After centrifugation (10000 g, 5 min), an aliquot of the supernatant is assayed by LCMS/MS for the amount of parent compound. The half-life (t1/2) is determined by the slope of the semi-logarithmic plot of the concentration-time profile.

[2] = tested on: human MDR1 P-gp; assay: Assessment of efflux in MDCK cells transfected with the human MDR1 gene; assay type: in vitro ADME, canine; settings: dog, pH 7.4, 37° C.; for Papp A→B: apical-to-basal, read-out: MDCK-PGP A-B; for efflux ratio: read-out: MDCK-PGP Efflux ratio [PEBA/PEAB]
Procedure: Assessment of efflux in Madin-Darby canine kidney (MDCK) cells transfected with the human MDR1 gene to assess brain penetration (Drug Metabolism and Disposition February 2008, 36 (2) 268-275; DOI: https://doi.org/10.1124/dmd.107.017434)
Apparent permeability coefficients (PE) of the compounds across the MDCK-MDR1 cell monolayers are measured (pH 7.4, 37° C.) in apical-to-basal (AB) and basal-to-apical (BA) transport direction. AB permeability (PEAB) represents drug absorption from the blood into the 35 brain and BA permeability (PEBA) drug efflux from the brain back into the blood via both passive permeability as well as active transport mechanisms mediated by efflux and uptake transporters that are expressed on the MDCK-MDR1 cells, predominantly by the overexpressed human MDR1 P-gp. The compounds are assigned to permeability/absorption classes by comparison of the AB permeabilities with the AB permeabilities of reference compounds with known in vitro permeability and oral absorption in the human. Identical or similar permeabilities in both transport directions indicate passive permeation, vectorial permeability points to additional active transport mechanisms. Higher PEBA than PEAB indicates the involvement of active efflux mediated by MDR1 P-gp. Active transport is concentration-dependently saturable.
MDCK-MDR1 cells (1-2×10e5 cells/1 cm2 area) are seeded on filter inserts (Costar transwell polycarbonate or PET filters, 0.4 μm pore size) and cultured (DMEM) for 7 days. Subsequently, the MDR1 expression is boosted by culturing the cells with 5 mM sodium butyrate in full medium for 2 days. Compounds are dissolved in appropriate solvent (like DMSO, 1-20 mM stock solutions). Stock solutions are diluted with HTP-4 buffer (128.13 mM NaCl, 5.36 mM KCl, 1 mM MgSO4, 1.8 mM CaCl2, 4.17 mM NaHCO3, 1.19 mM Na2HPO4×7H2O, 0.41 mM NaH2PO4×H2O, 15 mM HEPES, 20 mM glucose, 0.25% BSA, pH 7.4) to prepare the transport solutions (0.1-300 μM compound, final DMSO <=0.5%). The transport solution (TL) is applied to the apical or basolateral donor side for measuring A-B or B-A permeability (3 filter replicates), respectively. The receiver side contains the same buffer as the donor side. Samples are collected at the start and end of experiment from the donor and at various time intervals for up to 2 hours also from the receiver side for concentration measurement by HPLC-MS/MS or scintillation counting. Sampled receiver volumes are replaced with fresh receiver solution.

| half-life at 1 μM [1] [h] | Papp A→B [2] [×10⁻⁶ cm/s] | efflux ratio [2] | SMILES |
| --- | --- | --- | --- |
| > 2.17 |  |  | Cn1nnc(-c2ccc(C(F)F)cn2)c1COc1ccc(-n2ccc(C#N)n2)nn1 [Example 53] |
| > 2.17 |  |  | Cc1nnn(-c2ccc(C(F)F)cn2)c1COc1ccc(-c2ccc(C#N)nc2)nn1 [Example 8] |
| 1.93 |  |  | Cc1nnn(-c2ccc(C(F)F)cn2)c1COc1ccc(-c2cccc(C(N)=O)c2)nn1 [Example 6] |
|  | 24 | 1.4 | Cc1nnn(-c2ccc(C(F)F)cn2)c1COc1ccc(-n2cnc(C#N)c2)nn1 [Example 42, 1-[6-({1-[5-(difluoromethyl)pyridin-2-yl]-4-methyl-1H-1,2,3-triazol-5-yl}methoxy)pyridazin-3-yl]-1H-imidazole-4-carbonitrile] |
| > 2.17 |  |  | Cc1nnn(-c2ccc(C(F)F)cn2)c1COc1ccc(-c2cnn(CC#N)c2)nn1 [Example 7] |
| 2.12 |  |  | COc1ncc(-c2ccc(OCc3c(-c4ccc(C(F)F)cn4)nnn3C)nn2)cn1 [Example 31] |
| 2.17 |  |  | Cn1nnc(-c2ccc(C(F)F)cn2)c1COc1ccc(-n2cccn2)nn1 [Example 50] |
|  | 86 | 0.5 | Cc1nnn(-c2ccc(C(F)F)cn2)c1COc1ccc(-n2ncnc2C)nn1 [Example 38] |
| > 2.17 | 40 | 1.1 | CCn1cc(-c2ccc(OCc3c(-c4ccc(C(F)F)cn4)nnn3C)nn2)cn1 [Example 22] |
| > 2.17 | 51 | 1 | Cc1nnn(-c2ccc(C(F)F)cn2)c1COc1ccc(-c2ccnnc2)nn1 [Example 17] |
|  | 59 | 0.6 | Cc1nnn(-c2ccc(C(F)F)cn2)c1COc1ccc(-c2ccc(S(C)(=O)=O)nc2)nn1 [Example 16] |
| 2.15 | 59 | 0.4 | Cc1nnn(-c2ccc(C(F)F)cn2)c1COc1ccc(-n2cc(C#N)cn2)nn1 [Example 37] |
| > 2.17 | 59 | 0.6 | Cn1nnc(-c2ccc(C(F)F)cn2)c1COc1ccc(-c2cnccn2)nn1 [Example 39] |
| > 2.17 |  |  | Cn1nnc(-c2ccc(C(F)F)cn2)c1COc1ccc(-c2cnc3nonc3c2)nn1 [Example 35] |
|  | 41 | 1.2 | Cc1nnn(-c2ccc(C(F)F)cn2)c1COc1ccc(-c2ccc(N)nc2)nn1 [Example 19] |
| 1.3 |  |  | Cn1nnc(-c2ccc(C(F)F)cn2)c1COc1ccc(-c2cnn(C3CCC3)c2)nn1 [Example 32] |
| > 2.17 | 3 | 17.2 | Cn1nnc(-c2ccc(C(F)F)cn2)c1COc1ccc(-c2cccc(C(N)=O)c2)nn1 [Example 28] |
| > 2.17 | 31 | 1.8 | Cc1nnn(-c2ccc(C(F)F)cn2)c1COc1ccc(-c2ccc(=O)n(C)c2)nn1 [Example 1, 5-[6-({1-[5-(difluoromethyl)pyridin-2-yl]-4-methyl-1H-1,2,3-triazol-5-yl}methoxy)pyridazin-3-yl]-1-methyl-1,2-dihydropyridin-2-one] |
| > 2.17 |  |  | Cn1nnc(-c2ccc(C(F)F)cn2)c1COc1ccc(-c2ccc(N)nc2)nn1 [Example 25] |

| half-life at 1 μM [1] [h] | Papp A→B [2] [×10⁻⁶ cm/s] | efflux ratio [2] | SMILES |
| --- | --- | --- | --- |
| 1.62 |  |  | Cc1c(-c2ccc(OCc3c(-c4ccc(C(F)F)cn4)nnn3C)nn2)cc(C#N)n1C [Example 29] |
| > 2.17 |  |  | Cn1nnc(-c2ccc(C(F)F)cn2)c1COc1ccc(-n2cc(C#N)cn2)nn1 [Example 49] |
| > 2.17 | 18 | 2.7 | Cn1nnc(-c2ccc(C(F)F)cn2)c1COc1ccc(-n2cnc(C#N)c2)nn1 [Example 52] |
| 1.63 |  |  | Cc1c(-c2ccc(OCc3c(-c4ccc(C(F)F)cn4)nnn3C)nn2)cnn1C [Example 33] |
| 1.03 | 10 | 6.6 | Cn1nnc(-c2ccc(C(F)F)cn2)c1COc1ccc(-c2cn[nH]c2)nn1 [Example 24] |
| > 2.17 |  |  | Cc1nn(C)cc1-c1ccc(OCc2c(-c3ccc(C(F)F)cn3)nnn2C)nn1 [Example 30] |
| 0.667 | 57 | 0.8 | Cc1nnn(-c2ccc(C(F)F)cn2)c1COc1ccc(-c2cn[nH]c2)nn1 [Example 4] |
| > 2.17 | 58 | 0.6 | Cc1nnn(-c2ccc(C(F)F)cn2)c1COc1ccc(-c2cnccn2)nn1 [Example 56, 3-({1-[5-(difluoromethyl)pyridin-2-yl]-4-methyl-1H-1,2,3-triazol-5-yl}methoxy)-6-(pyrazin-2-yl)pyridazine] |
| > 2.17 | 15 | 2 | Cc1nnn(-c2ccc(C(F)F)cn2)c1COc1ccc(-c2c[nH]c(=O)c(F)c2)nn1 [Example 20] |
| > 2.17 | 69 | 0.8 | Cc1ncnn1-c1ccc(OCc2c(-c3ccc(C(F)F)cn3)nnn2C)nn1 [Example 48, 3-({4-[5-(difluoromethyl)pyridin-2-yl]-1-methyl-1H-1,2,3-triazol-5-yl}methoxy)-6-(5-methyl-1H-1,2,4-triazol-1-yl)pyridazine] |
|  | 17 | 3.5 | Cc1n[nH]c(C)c1-c1ccc(OCc2c(C)nnn2-c2ccc(C(F)F)cn2)nn1 [Example 15] |
| > 2.17 | 71 | 0.6 | Cc1ncc(-c2ccc(OCc3c(C)nnn3-c3ccc(C(F)F)cn3)nn2)o1 [Example 18] |
|  | 54 | 0.7 | Cc1nnn(-c2ccc(C(F)F)cn2)c1COc1ccc(-n2nccn2)nn1 [Example 43] |
| 1.38 |  |  | Cc1nnn(-c2ccc(C(F)F)cn2)c1COc1ccc(-c2cc[nH]n2)nn1 [Example 5] |
|  | 55 | 0.7 | CNc1cccc(-c2ccc(OCc3c(C)nnn3-c3ccc(C(F)F)cn3)nn2)n1 [Example 14] |
| > 2.17 |  |  | Cn1nnc(-c2ccc(C(F)F)cn2)c1COc1ccc(-c2ccc(S(C)(=O)=O)nc2)nn1 [Example 23] |
|  | 34 | 1.9 | Cc1nnn(-c2ccc(C(F)F)cn2)c1COc1ccc(-c2cnc(N)nc2)nn1 [Example 2] |
| > 2.17 | 41 | 1.4 | Cc1cc(-c2ccc(OCc3c(C)nnn3-c3ccc(C(F)F)cn3)nn2)cnn1 [Example 3] |
|  | 51 | 0.3 | Cc1nnn(-c2ccc(C(F)F)cn2)c1COc1ccc(-c2ccc(C#N)s2)nn1 [Example 12] |
